Measured values as given in US6737383B1, “Herbicidal oxadiazolidines” (priority 1999, dated 2004).

Experiments:
wild oat = experiment: Test E wild oat; assay type: in vivo, Avena fatua; conditions: Preemergence, Rate 250 g/ha
bedstraw = experiment: Test B pre/postemergence bedstraw; assay type: in vivo, Galium aparine
Summary of the method: (§1)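 Herbicidal effect was estimated by eye on a ten-point control scale after plants spent twelve to sixteen days in a greenhouse following soil or foliar treatment. Foliar sprays targeted plants at one to four leaves; all doses were formulated in a non-phytotoxic solvent with surfactant.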

winter barley = experiment: Test E winter barley; assay type: in vivo, Hordeum vulgare; conditions: Preemergence, Rate 250 g/ha
winter wheat = experiment: Test E winter wheat; assay type: in vivo, Triticum aestivum; conditions: Preemergence, Rate 250 g/ha
green foxtail = experiment: Test E green foxtail; assay type: in vivo, Setaria viridis; conditions: Preemergence, Rate 250 g/ha
blackgrass = experiment: Test E blackgrass; assay type: in vivo, Alopecurus myosuroides; conditions: Preemergence, Rate 250 g/ha
Italian ryegrass = experiment: Test E Italian ryegrass; assay type: in vivo, Lolium multiflorum; conditions: Preemergence, Rate 250 g/ha
bamyardgrass = experiment: Test B flood test barnyardgrass; assay type: in vivo, Echinochloa crus-galli; conditions: for Plant response rating, Barnyardgrass (0 to 10 scale, 0 is no effect, 10 is complete control) / Barnyardgrass plant response rating (0 to 10 scale, 0 is no effect, 10 is complete control): visual evaluation after twelve to sixteen days; for Barnyardgrass plant response rating (0 to 10 scale, 0 is no effect, 10 is complete control): under heading Pre-emergence
Summary of the method: (§2)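 Read-out is a visual response score from 0 (no effect) to 10 (complete control), assigned by comparison with untreated controls. Treatment was applied at the 2-leaf stage, and plants stayed in the greenhouse for twelve to sixteen days before scoring.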

rice = experiment: Test B flood test rice; assay type: in vivo, Oryza sativa; conditions: for Plant response rating, Rice (0 to 10 scale, 0 is no effect, 10 is complete control) / Rice plant response rating (0 to 10 scale, 0 is no effect, 10 is complete control): visual evaluation after twelve to sixteen days; for Rice plant response rating (0 to 10 scale, 0 is no effect, 10 is complete control): under heading Pre-emergence
Summary of the method: as §2

pigweed = experiment: Test B pre/postemergence pigweed; assay type: in vivo, Amaranthus retroflexus
Summary of the method: as §1

[1] = Preemergence, Rate 62 g/ha, scale of 0 to 10 where 0 is no effect and 10 is complete control
[2] = Preemergence, Rate 250 g/ha, scale of 0 to 10 where 0 is no effect and 10 is complete control
[3] = Preemergence, Rate 500 g/ha, scale of 0 to 10 where 0 is no effect and 10 is complete control
[4] = Rate 62 g/ha, Postemergence, scale 0 to 10, 0 no effect, 10 complete control
[5] = Rate 125 g/ha, Postemergence, scale of 0 to 10 where 0 is no effect and 10 is complete control
[6] = Rate 125 g/ha, Preemergence, scale of 0 to 10 where 0 is no effect and 10 is complete control
[7] = Rate 250 g/ha, Postemergence, scale of 0 to 10 where 0 is no effect and 10 is complete control
[8] = Rate 62 g/ha, headed Pre-emergence (flood test species), scale 0 to 10 (0 no effect, 10 complete control)
[9] = Rate 125 g/ha, Pre-emergence, flood test species, scale 0 to 10 where 0 is no effect and 10 is complete control
[10] = Rate 250 g/ha, Pre-emergence, flood-test species, scale 0 to 10, 0 is no effect, 10 is complete control
[11] = Rate 500 g/ha, Pre-emergence, flood test species, scale 0 to 10 (0 no effect, 10 complete control)
[12] = Postemergence, Rate 62 g/ha, scale 0 to 10, 0 is no effect, 10 is complete control
[13] = Postemergence, Rate 250 g/ha, scale 0 to 10, 0 no effect, 10 complete control
[14] = Preemergence, Rate 62 g/ha, scale 0 to 10, 0 is no effect, 10 is complete control
[15] = Preemergence, Rate 125 g/ha, scale 0 to 10 (0 no effect, 10 complete control)
[16] = Preemergence, Rate 500 g/ha, scale 0 (no effect) to 10 (complete control)
[17] = Rate 125 g/ha, Postemergence, scale 0 to 10, 0 no effect, 10 complete control
[18] = Rate 500 g/ha, Postemergence, 0 to 10 scale (0 no effect, 10 complete control)
[19] = Rate 125 g/ha, Postemergence section (flood test species), scale 0 to 10, 0 no effect, 10 complete control
[20] = Rate 500 g/ha, Postemergence section of Table B, 0 to 10 scale (0 no effect, 10 complete control)
[21] = flood test, listed under Postemergence, Rate 250 g/ha, scale 0 to 10, 0 no effect, 10 complete control
[22] = Preemergence, Rate 125 g/ha, 0 is no effect, 10 is complete control
[23] = Preemergence, Rate 250 g/ha, scale 0 to 10, 0 is no effect, 10 is complete control
[24] = Preemergence, Rate 500 g/ha, scale 0 to 10 (0 no effect, 10 complete control)
[25] = Rate 62 g/ha, Postemergence, scale of 0 to 10 where 0 is no effect and 10 is complete control
[26] = Rate 125 g/ha, Postemergence, scale 0 to 10
[27] = Rate 500 g/ha, Postemergence, scale 0 to 10
[28] = Rate 1000 g/ha, Preemergence, scale 0 to 10 (0 no effect, 10 complete control)
[29] = Rate 500 g/ha, headed Pre-emergence (flood test species), scale 0 to 10 (0 no effect, 10 complete control)
[30] = Rate 1000 g/ha, Pre-emergence (as headed), scale 0 to 10
[31] = Preemergence, Rate 62 g/ha, scale 0 to 10 (0 no effect, 10 complete control)
[32] = Preemergence, Rate 125 g/ha, scale of 0 to 10 where 0 is no effect and 10 is complete control
[33] = Preemergence, Rate 500 g/ha, scale 0 to 10, 0 is no effect, 10 is complete control
[34] = Rate 62 g/ha, flood test species, Pre-emergence
[35] = Rate 125 g/ha, flood test species
[36] = Postemergence, Rate 250 g/ha, scale 0 to 10, 0 is no effect, 10 is complete control
[37] = Postemergence, Rate 500 g/ha, scale of 0 to 10 where 0 is no effect and 10 is complete control

CCC=CCn1c(=O)on(C(=O)N(c2ccc(F)cc2)C(C)C)c1=O [Compound 286]
55: Green foxtail plant response rating (0 to 100 scale) (green foxtail)
4: Barnyardgrass plant response rating (bamyardgrass; [11])
6: Bedstraw plant response rating (bedstraw; Rate 500 g/ha, Postemergence, scale 0 to 10, 0 no effect, 10 complete control) | Plant response rating, Redroot pigweed (pigweed; [7])
3: Redroot pigweed plant response rating (pigweed; [5])
0: Bedstraw plant response rating (bedstraw; [1]) | Bedstraw plant response rating (bedstraw; [2]) | Plant response rating, Bedstraw (bedstraw; [3]) | Bedstraw plant response rating (bedstraw; [6]) | Barnyardgrass plant response rating (bamyardgrass; [8]) | Barnyardgrass plant response rating (bamyardgrass; [9]) | Barnyardgrass plant response rating (bamyardgrass; [10]) | Rice plant response rating (rice; [8]) | Rice plant response rating (rice; [9]) | Rice plant response rating (rice; [10]) | Rice plant response rating (rice; [11]) | Redroot pigweed plant response rating (pigweed; [1]) | Redroot pigweed plant response rating (pigweed; [4]) | Redroot pigweed plant response rating (pigweed; [6])
2: Bedstraw plant response rating (bedstraw; [4]) | Bedstraw plant response rating (bedstraw; [5]) | Redroot pigweed plant response rating (pigweed; [2])
40: Wheat (winter) plant response rating (0 to 100 scale) (winter wheat) | I. Ryegrass plant response rating (0 to 100 scale) (Italian ryegrass)
10: Wild oat plant response rating (0 to 100 scale) (wild oat) | Blackgrass plant response rating (0 to 100 scale) (blackgrass) | Plant response rating, Redroot pigweed (pigweed; [3])
5: Plant response rating, Bedstraw (bedstraw; [7]) | Barley (winter) plant response rating (0 to 100 scale) (winter barley)

CC(C)N(C(=O)n1oc(=O)n(-c2ccc(Cl)cc2C(F)(F)F)c1=O)c1ccc(F)cc1 [Compound 20]
2: Plant response rating, Bedstraw (bedstraw; [2]) | Rice plant response rating (rice; [20]) | Plant response rating, Redroot pigweed (pigweed; [15])
3: Bedstraw plant response rating (bedstraw; [12]) | Bedstraw plant response rating (bedstraw; [17]) | Redroot pigweed plant response rating (pigweed; [12]) | Redroot pigweed plant response rating (pigweed; [13]) | Redroot pigweed plant response rating (pigweed; [17])
5: Bedstraw plant response rating (bedstraw; [18])
4: Bedstraw plant response rating (bedstraw; [13]) | Plant response rating, Redroot pigweed (pigweed; [2]) | Redroot pigweed plant response rating (pigweed; [18])
9: Redroot pigweed plant response rating (pigweed; [16])
6: Bedstraw plant response rating (bedstraw; [16])
0: Plant response rating, Bedstraw (bedstraw; [14]) | Plant response rating, Bedstraw (bedstraw; [15]) | Barnyardgrass plant response rating (bamyardgrass; [12]) | Barnyardgrass plant response rating (bamyardgrass; [19]) | Barnyardgrass plant response rating (bamyardgrass; [20]) | Barnyardgrass plant response rating (bamyardgrass; [21]) | Rice plant response rating (rice; [12]) | Rice plant response rating (rice; [19]) | Rice plant response rating (rice; [21]) | Plant response rating, Redroot pigweed (pigweed; [14])

CC(C)N(C(=O)n1oc(=O)n(C2CCCC(C(F)(F)F)C2)c1=O)c1ccc(F)cc1 (stereo not shown) [Compound 184]
7: Bedstraw plant response rating (bedstraw; [26]) | Plant response rating (0 to 10; 0 is no effect, 10 is complete control), Redroot pigweed (pigweed; Rate 250 g/ha, Postemergence) | Redroot pigweed plant response rating (pigweed; [27])
3: Plant response rating (0 to 10; 0 is no effect, 10 is complete control), Bedstraw (bedstraw; Rate 250 g/ha, Postemergence) | Barnyardgrass plant response rating (bamyardgrass; [30])
1: Redroot pigweed plant response rating (pigweed; [24])
0: Bedstraw plant response rating (bedstraw; [1]) | Bedstraw plant response rating (0 to 10 scale) (bedstraw; [22]) | Bedstraw plant response rating (bedstraw; [25]) | Barnyardgrass plant response rating (bamyardgrass; [8]) | Barnyardgrass plant response rating (bamyardgrass; [9]) | Barnyardgrass plant response rating (bamyardgrass; [10]) | Barnyardgrass plant response rating (bamyardgrass; Rate 500 g/ha, listed under Postemergence (flood test species), scale 0 to 10) | Rice plant response rating (rice; [8]) | Rice plant response rating (rice; [9]) | Rice plant response rating (rice; [10]) | Plant response rating, Rice (rice; [29]) | Rice plant response rating (rice; [30]) | Redroot pigweed plant response rating (pigweed; [1]) | Redroot pigweed plant response rating (0 to 10 scale) (pigweed; [22]) | Redroot pigweed plant response rating (pigweed; [23]) | Redroot pigweed plant response rating (pigweed; [25])
2: Bedstraw plant response rating (bedstraw; [23]) | Bedstraw plant response rating (bedstraw; [24]) | Plant response rating, Bedstraw (bedstraw; [28]) | Plant response rating, Redroot pigweed (pigweed; [28])
6: Bedstraw plant response rating (bedstraw; [27]) | Plant response rating, Barnyardgrass (bamyardgrass; [29]) | Redroot pigweed plant response rating (pigweed; Postemergence, Rate 1000 g/ha, scale 0 to 10 (0 no effect, 10 complete control))
4: Redroot pigweed plant response rating (pigweed; [26])

Cc1nc(Cl)sc1C(C)n1c(=O)on(C(=O)N(c2ccccc2)C(C)C)c1=O (stereo not shown) [Compound 407]
0: Plant response rating, Bedstraw (bedstraw; [31]) | Plant response rating, Bedstraw (bedstraw; [32]) | Bedstraw plant response rating (bedstraw; [2]) | Bedstraw plant response rating (bedstraw; [33]) | Plant response rating, Barnyardgrass (0 to 10 scale, 0 is no effect, 10 is complete control) (bamyardgrass; [34]) | Barnyardgrass plant response rating (0 to 10 scale, 0 is no effect, 10 is complete control) (bamyardgrass; [35]) | Barnyardgrass plant response rating (bamyardgrass; [10]) | Barnyardgrass plant response rating (bamyardgrass; [11]) | Plant response rating, Rice (0 to 10 scale, 0 is no effect, 10 is complete control) (rice; [34]) | Rice plant response rating (0 to 10 scale, 0 is no effect, 10 is complete control) (rice; [35]) | Rice plant response rating (rice; [10]) | Rice plant response rating (rice; [11]) | Plant response rating, Redroot pigweed (pigweed; [36]) | Redroot pigweed plant response rating (pigweed; [37]) | Plant response rating, Redroot pigweed (pigweed; [31]) | Plant response rating, Redroot pigweed (pigweed; [32]) | Redroot pigweed plant response rating (pigweed; [23]) | Redroot pigweed plant response rating (pigweed; [33])

CC(C)N(C(=O)n1oc(=O)n(CC2CCC2)c1=O)c1ccc(F)cc1 [Compound 403]
9: Redroot pigweed plant response rating (pigweed; [23]) | Redroot pigweed plant response rating (pigweed; [33])
1: Plant response rating, Redroot pigweed (pigweed; [36])
8: Bedstraw plant response rating (bedstraw; [37])
4: Barnyardgrass plant response rating (0 to 10 scale, 0 is no effect, 10 is complete control) (bamyardgrass; [35]) | Plant response rating, Redroot pigweed (pigweed; [32])
2: Plant response rating, Bedstraw (bedstraw; Postemergence, Rate 125 g/ha, scale 0 to 10, 0 is no effect, 10 is complete control) | Plant response rating, Barnyardgrass (0 to 10 scale, 0 is no effect, 10 is complete control) (bamyardgrass; [34]) | Barnyardgrass plant response rating (bamyardgrass; [10]) | Redroot pigweed plant response rating (pigweed; [37])
0: Plant response rating, Bedstraw (bedstraw; [31]) | Plant response rating, Bedstraw (bedstraw; [32]) | Bedstraw plant response rating (bedstraw; [25]) | Plant response rating, Rice (0 to 10 scale, 0 is no effect, 10 is complete control) (rice; [34]) | Rice plant response rating (0 to 10 scale, 0 is no effect, 10 is complete control) (rice; [35]) | Rice plant response rating (rice; [10]) | Rice plant response rating (rice; [11]) | Plant response rating, Redroot pigweed (pigweed; [31]) | Redroot pigweed plant response rating (pigweed; [25])
7: Barnyardgrass plant response rating (bamyardgrass; [11])
